60 compounds from the METLIN SMRT retention time set (Domingo-Almenara et al. 2019) can be followed below.

This series in a line: gradient 5% acetonitrile 3 min, to 50% in 2 min, to 85% in 15 min, held 3 min, 100 µL/min. The conditions noted are these: column: Zorbax Extend-C18 2.1 x 50 mm; eluents: water / acetonitrile, 0.1% formic acid. In outline:
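A Zorbax Extend-C18 column (2.1 × 50 mm, 1.8 μm) run at 100 μL/min with water and acetonitrile, both containing 0.1% formic acid, separated mixtures of ~100 pure standards. The HPLC was coupled to a quadrupole time-of-flight mass spectrometer operated in positive and negative ionization mode, with dead and dwell volumes of 40 μL and 900 μL. Each retention time was taken from a computationally picked adduct peak that was then manually inspected.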
In turn, `COc1ccc2c(CCNC(=O)c3cc(OC)c(OC)c(OC)c3)c[nH]c2c1` had an RP-LC retention time of 758 s.

In turn, `Cc1nn(C)c(C)c1S(=O)(=O)N1CCC(OCCOCc2ccccc2)CC1` yielded an RP-LC retention time of 896 s. As for `O=C(c1cc(S(=O)(=O)N2CCCC(C(=O)N3CCCC3)C2)c[nH]1)N1CCCCCC1` (stereo not given), the figure is 733 s; as for `Cc1cccc(NC(=O)Cn2nc(N3CCCC(C)C3)c3ccccc3c2=O)c1C` (stereo not given), 1120 s; as for `COc1ccc2c(c1O)-c1cccc3c1[C@@H](C2)N(C)CC3`, 643 s. On to `CCc1ccc(Oc2cc(N3CCC(C(=O)NCc4ccc(OC)cc4)CC3)ncn2)cc1`, for which the RP-LC retention time is 988 s. Then `COc1ccc(NC(=O)N2CCN(c3cc(C)nc(N4CCCC4)n3)CC2)c(C)c1`, with 692 s. `CN(C)c1ccc(-c2nc3cnccn3c2Nc2cccc(C(=O)O)c2)cc1`: the RP-LC retention time amounted to 655 s. Then `CC(C)C(=O)Nc1ccc2nc(N3CCN(c4ccccc4F)CC3)cc(C(=O)O)c2c1`, with 664 s; and `O=c1ccn(-c2ccccc2)nc1-c1nc(-c2ccc3c(c2)OCO3)no1`, with 835 s; and `Cn1c(C(=O)NCC2CCCO2)cc2c1CCN(Cc1cccc(F)c1)C2` (stereo not given), with 618 s. On to `CCNC(=O)C1CCN(S(C)(=O)=O)c2cc(Cl)ccc2O1` (stereo not given), for which the RP-LC retention time turned out to be 736 s. In turn, `Cn1nccc1-c1cccc(-c2noc(-c3cc(F)ccc3F)n2)c1` came in with an RP-LC retention time of 1100 s. `Cc1cc(NC(=O)Cc2cc(-c3ccccc3F)on2)no1` came in with an RP-LC retention time of 772 s. As for `O=C(Nc1nnc(-c2cccs2)o1)c1cc(Cl)ccc1Cl`, the figure is 764 s; as for `c1ccc(-c2noc(-c3ccccc3OC3CCNC3)n2)cc1` (stereo not given), 684 s; as for `O=C(NCCN1CCCC1)c1cccc(-c2ccc(N3CCCCCC3)nc2)c1`, 574 s. As for `Cc1ccc(NC(=O)C2CC(=O)N(c3n[nH]c4cccc(F)c34)C2)c(C)c1` (stereo not given), the figure is 770 s; as for `COc1ccc(NC(=O)c2cn3c(n2)COCC3)cc1Cl`, 703 s; as for `CCCS(=O)(=O)N1CCC(Cc2ccc(COc3ccncc3)cc2)CC1`, 701 s. The compound `COc1ccc(CCNCC(O)Cn2c3c(c4ccccc42)CCN(C)C3=O)cc1OC` (stereo not given) returned an RP-LC retention time of 666 s. As for `CCN1CCN(c2cc(C)c3cc(NC(=S)NCc4cc(OC)ccc4OC)ccc3n2)CC1`, the figure is 598 s. `COc1ccc(C)cc1NC1=NS(=O)(=O)c2ccccc21` yielded an RP-LC retention time of 852 s.

In turn, `COc1ccc(/C=C/c2nc(-c3ccc4oc(C)nc4c3)no2)cc1OC` displayed an RP-LC retention time of 995 s. Then `CC(NC(=O)C1CCN(c2cncnc2N2CCCCC2)CC1)c1ccc(F)cc1` (stereo not given), with 715 s. As for `Cc1cccc(CNC(=O)C2CCN(C(=O)C3Sc4ccccc4NC3=O)CC2)c1` (stereo not given), the figure is 762 s; as for `Cc1nc(C2CCOCC2)n(C2CCN(S(=O)(=O)c3cccc(Cl)c3)C2)n1` (stereo not given), 738 s. `O=C(C1CCN(c2cncnc2N2CCCC2)CC1)N1CCCCC1` showed an RP-LC retention time of 613 s. Then `CCc1ccc(-c2cc3c(=O)n(Cc4noc(CN5CCCCC5C)n4)ccn3n2)cc1` (stereo not given), with 761 s; and `O=C(c1cccs1)N1CCc2c([nH]c3ccccc23)C1c1ccc(F)cc1` (stereo not given), with 1150 s; and `Cc1cccc(-c2nnc(-c3ccc(Cl)c(S(=O)(=O)N(C)C)c3)o2)c1`, with 1040 s. As for `COC(=O)CNC(=O)N1CCCC1c1cccc(F)c1` (stereo not given), the figure is 701 s.

`O=C(C1=C(O)C(=O)N(CCCn2ccnc2)C1c1ccc(F)cc1)c1cc2ccccc2o1` (stereo not given): the RP-LC retention time came to 622 s. As for `CCCN(C)C(=O)c1cn2ccnc(-c3ccc(C)cc3)c2n1`, the figure is 956 s; as for `Cc1cc(C)cc(N2CCC(NC(=O)c3ccc(C)s3)C2=O)c1` (stereo not given), 904 s; as for `Cc1ccc(CNC(=O)C2(C)CN(S(=O)(=O)c3ccccc3)CC(=O)N2CCC(C)C)cc1` (stereo not given), 1030 s. Then `COc1ccc(NC(=O)C2CCCN2S(=O)(=O)c2cc3c(cc2C)NC(=O)C(C)O3)cc1Cl` (stereo not given), with 824 s; and `CCCn1c(=O)c(C)nc2cc(-c3noc(-c4cccs4)n3)ccc21`, with 1120 s.

`CCCn1ncc(N2CCC(C(=O)N3CCCCC3)CC2)cc1=O` showed an RP-LC retention time of 559 s. The compound `Cc1nnc(-c2ccc(S(=O)(=O)N3CCC(C)CC3)o2)o1` displayed an RP-LC retention time of 815 s.

`Cc1nc(N2CCN(c3ccccn3)CC2)nc2c1C(=O)CC(C)(C)C2` gave an RP-LC retention time of 677 s. As for `CCn1c(C(=O)NCCc2ccccc2)cc2sc(Cl)cc21`, the figure is 1160 s. Turning to `O=C(NCCN1CCC(Cc2ccccc2)CC1)c1ccc2c(c1)NC(=O)C1CCCCN21` (stereo not given), the RP-LC retention time was determined as 693 s. `NC(N)=Nc1nc2ccc([N+](=O)[O-])cc2[nH]1` yielded an RP-LC retention time of 651 s. Consider `Cc1nn(C(=O)CCc2ccccc2)c(C)c1S(=O)(=O)N1CCCC1`, for which the RP-LC retention time was found to be 1180 s. Then `CN(Cc1nc(Cn2ccn3nc(-c4ccc(F)cc4)cc3c2=O)no1)C1CCCCC1`, with 704 s; and `COc1ccc(C)cc1NC(=O)C1CCN(S(C)(=O)=O)c2cc(C)ccc2O1` (stereo not given), with 1030 s; and `CN(C)N1C(=O)c2c(Cl)c(Cl)c(Cl)c(Cl)c2C1=O`, with 1080 s. As for `Cc1ccc(C2Cn3cnc(C(=O)N4CCC(C(=O)NCC5CCCCC5)CC4)c3CO2)cc1` (stereo not given), the figure is 885 s; as for `CC(C)c1ccc(Nc2c(-c3ccc(Cl)cc3)nc3cnccn23)cc1`, 1190 s; as for `CS(=O)(=O)N1CCN(Cc2cc3nc(-c4cccc5[nH]ncc45)nc(N4CCOCC4)c3s2)CC1`, 706 s. Then `CC(=O)Nc1ccc(OCCOc2ccc([N+](=O)[O-])cc2)cc1`, with 862 s; and `O=S(=O)(c1ccc(F)c(Cl)c1)N1CCc2nc(-c3ccccc3)ncc2C1`, with 1130 s. `CCN(CC)CCNc1ccc(-c2nc(-c3ccc(F)cc3)no2)nn1` came in with an RP-LC retention time of 667 s. Then `O=C(CN1C(=O)NC2(CCCCC2)C1=O)NCc1ccccc1F`, with 733 s; and `Cn1ncc2cc3c(Nc4ccc(Cl)cc4)cccc3nc21`, with 670 s. As for `O=C(c1nc2ccccn2c1-c1ccc(Cl)cc1)N1CCCC1`, the figure is 712 s; as for `COc1ccc(C(=O)Nc2nnc(SCc3nnc(-c4ccccc4)o3)s2)cc1OC`, 830 s. As for `Cc1cc(C)cc(Oc2cc(N3CCC(C(=O)NCCc4ccccc4)CC3)ncn2)c1`, the figure is 986 s; as for `COc1ccc(-c2noc(C3CCCN3C(=O)c3cc(F)ccc3F)n2)cc1OC` (stereo not given), 900 s.
